According to ChEMBL document CHEMBL1150997, “Novel compound stimulates amylase induction in barley seeds” (Bioorg Med Chem Lett, 1994):

Tests used:
Format in all cases: functional
[1] = system: Hordeum vulgare subsp. vulgare; assay: Amylase induction activity in barley aleurone layer at 1 uM
[2] = system: Hordeum vulgare subsp. vulgare; assay: Amylase induction activity in barley aleurone layer at 0.1 uM
[3] = system: Hordeum vulgare subsp. vulgare; assay: Amylase induction activity in barley aleurone layer at 0.01 uM

Q: Which results are given for CC1=C(C(=O)O)[C@H]2[C@@H](C(C)C)CC[C@]1(C)[C@H]2CO?
A: Activity [1]: 4; Activity [2]: 1; Activity [3]: 0
